Measured values reported in US20100169994A1, “ANIMAL MODEL” (priority 2007, published 2010).
Entries after “also recorded” stand apart in the source; their conditions may differ.

Columns and labels:
NK1−/− and NK1+/+ mice [1] = assay: Light/dark exploration box (LDEB), locomotor activity after d-AMP with or without NK1 antagonist pretreatment; type: in vivo; settings: for behaviour (locomotor activity, response to d-AMP) of NK1+/+ mice given a NK1 antagonist ('pseudo knockout'): RP 67580 5 or 10 mg/kg i.p. or L 733060 5 mg/kg; for locomotor activity (number of lines crossed): d-AMP 2.5 mg/kg i.p.
Experimental: (§1) Experiments were carried out on male NK1−/− (‘knock-out’) and NK1+/+(wild-type) mice, weighing 25-35 g (i.e. about 6-7 weeks of age). Mice were derived from a 129/Sv×C57BL/6 genetic background that had been crossed with an outbred MF1 strain (Harlan OLAC, Bicester, UK). All mice were taken from a colony maintained at University College London.
All experiments tested the behaviour of (formerly) treatment-naïve mice in the LDEB and were carried out between 13:00 h and 15:00 h. Each LDEB consisted of a small ‘dark zone’ (length, 15 cm; width, 20 cm; 174 lux) and a larger ‘light zone’ (length 30 cm; width, 20 cm; 346 lux). The walls and floor of the ‘dark zone’ were coloured black. The walls and floor of the ‘light zone’ were coloured white. The floor of both zones was marked as a grid of 5×5 cm squares (12 in the dark zone, 24 in the light zone) which was used to score locomotor activity. The partition separating the two zones incorporated a small (white) guillotine-style door (height 10.5 cm, width 7.5 cm), which could be raised to allow animals to commute between the two compartments. Mice were tested in pairs in two LDEBs, placed side by side. At 13:00 h, each mouse was placed in the dark zone of a LDEB, with the partition door closed. After 30 min in the dark zone, mice of each genotype were randomly assigned to one of six treatment groups (n=3˜4) and given an injection (10 mL/kg; i.p) of either vehicle (one drop of Tween 80 in saline to appropriate volume) or the NK1 antagonist, RP 67580 (5 or 10 mg/kg). The same subjects were given a second injection or either saline or d-amphetamine (2.5 mg/kg, i.p), 30 min later.
At 14:30 h, each mouse was transferred to the centre of the novel light zone, facing away from the guillotine style door. The door was immediately lifted to allow the animals to commute freely between the two compartments. Their behaviour was recorded with a Sony Handycam Vision video recorder for 30 min. The number of lines crossed by all four paws of the mouse (as an index of locomotor activity) was scored ‘blind’, in 5-min time-bins.
In a second experiment, this protocol was repeated, substituting the NK1 antagonist, L 733060 (5 mg/kg) in place of RP 67580. All other details (including Tween vehicle) were the same.
RP 67580 was administered at 5 or 10 mg/kg; dissolved in a drop of Tween 80 and adjusted to the appropriate concentration by adding 0.9% saline. […]
The data were analysed by three-way (experiment testing RP 67580) or two-way (for […]) ANOVA using ‘genotype’, ‘drug’ and ‘dose’ (if appropriate) as main factors. […] Data are expressed as means±s.e.mean and P≦0.05 was set as the criterion for significance.

[2] = tested on: NK1−/− and wild-type mice; settings: wild-type versus NK1−/− mice; FIG. 13
Experimental: The effect of betaxolol and desipramine was tested using similar protocols to those used for testing the effect of d-amphetamine.

NK1−/− and NK1+/+ mice [3] = assay: Microdialysis of extracellular dopamine in frontal cortex/striatum after d-amphetamine; type: in vivo; settings: d-amphetamine 5 mg/kg i.p.
Experimental: as §1, with “NK1+/+ (wild-type)” for “NK1+/+(wild-type)”
Microdialysis probes were constructed in-house and equipped with cuprophan membrane (inner diameter 200 μm, outer diameter 250 μm, molecular weight cut-off 5 kD; Medicell International Ltd., England) forming an active dialysis window of 3.5 mm. Anaesthesia was induced in a closed chamber delivering 2.0% halothane combined with 95% O2/5% CO2 at 2 L/min. The mice were then placed in a stereotaxic frame and anaesthesia maintained, via a face mask, with 1.5% halothane in 95% O2/5% CO2 (2 L/min).
A small incision was made in the scalp to expose the skull and reveal bregma. […] Vital signs were monitored continually to ensure a respiratory rate of 100-190/min (average: 135±20/min). […]
The dopamine content of the dialysis samples was determined by HPLC coupled to electrochemical detection. […] Dopamine was detected using a Coulochem TI detector (ESA) and the mobile phase was conditioned by a guard cell (ESA model 5020). The […] content of the samples was calculated from the peak height of the chromatogram with reference to an external standard. […]

NK1R−/− and NK1R+/+ mice = assay: Activity meter (locomotor activity chamber), ambulatory activity; type: in vivo; settings: FIG. 2
Experimental: Behavioural tests were carried out in a standard locomotor activity chamber comprising a custom-made transparent perspex box (length 30 cm; width 19 cm; depth 18 cm). The box was placed in the centre of an activity meter (410×410 mm, Columbia Instruments, USA) which was equipped with parallel infrared beams spanning the chamber. Ambulatory activity was scored whenever the mouse interrupted two adjacent beams. Light intensity within the chamber was 82 lux. All experiments were performed in drug-naive mice, between 14:00 h and 18:30 h. […] The apparatus was cleaned thoroughly with water after each experiment.

NK1−/− and NK1+/+ mice [4] = assay: Light/dark exploration box, locomotor activity after desipramine; type: in vivo; settings: desipramine 10 mg/kg i.p., FIG. 3
Experimental: Experiments were carried out on male NK1−/− (‘knock-out’) and NK1+/+(wild-type) mice, weighing 25-31 g (i.e. about 6-7 weeks of age). Mice were derived from a 129/Sv×C57BL/6 genetic background that had been crossed with an outbred MF1 strain (Harlan OLAC, Bicester, UK). All mice were taken from a colony maintained at University College London. All experiments were performed in treatment-naïve mice, between 13:00 h and 17:00 h. Behavioural tests were carried out in a custom-built light/dark exploration box (LDEB) (length 45 cm; width 20 cm; depth 25 cm). The test box consisted of a small ‘dark zone’ (length 15 cm; 4 lux) and a larger ‘light zone’ (length 30 cm; 20 lux). The walls and floor of the ‘dark zone’ were coloured black. […] The behaviour of the mouse was recorded on video for the following 30 min. The following behaviours were later scored ‘blind’, in 10 min time-bins: i) latency to leave the light zone following forced entry (anxiety-like behaviour or impulsivity?) ii) latency to first return to the light zone following the first exit (the appearance of all four paws was the criterion for re-entry) (impulsivity) iii) number of returns to the light zone (impulsivity) iv) number of lines crossed by all four paws of the mouse (as an index of locomotor activity) Data were analysed by two-way analysis of variance (ANOVA) using ‘genotype’ and ‘treatment’ as main factors. […]

NK1−/− and NK1+/+ mice [5] = assay: Light/dark exploration box (LDEB), locomotor activity after methylphenidate; type: in vivo; settings: methylphenidate 2.5 mg/kg i.p.
Experimental: as §1, with “NK1+/+ (wild-type)” for “NK1+/+(wild-type)”
All experiments tested the behaviour of (formerly) treatment-naïve mice in the LDEB and were carried out between 13:00 h and 15:00 h. Each LDEB consisted of a small ‘dark zone’ (length, 15 cm; width, 20 cm; 174 lux) and a larger ‘light zone’ (length, 30 cm; width 20 cm; 346 lux). The walls and floor of the ‘dark zone’ were coloured black. The walls and floor of the ‘light zone’ were coloured white. […]
30 min later, the mice were transferred to the centre of the novel light zone, facing away from the guillotine style door. […] Their behaviour was recorded with a Sony Handycam Vision video recorder for 30 min. The number of lines crossed by all four paws of the mouse (an index of locomotor activity) was scored ‘blind’, in 10-min time-bins. […]
The data were analysed by two-way ANOVA using ‘genotype’ and ‘treatment as main factors. […] Data are expressed as means±s.e.mean and […] was set as the criterion for significance.

## FC(F)(F)c1cc(CO[C@H]2CCCN[C@H]2c2ccccc2)cc(C(F)(F)F)c1 [L733060]
NK1−/− and NK1+/+ mice [1]; NK1+/+ mice
  behaviour (locomotor activity, response to d-AMP) of NK1+/+ mice given a NK1 antagonist ('pseudo knockout'): Mimics that of Nk1−/− Mice

## COc1ccccc1CC(=N)N1C[C@@H]2C(=O)CCC(c3ccccc3)(c3ccccc3)[C@@H]2C1 [RP 67580]
NK1−/− and NK1+/+ mice [1]; NK1+/+ mice
  behaviour (locomotor activity, response to d-AMP) of NK1+/+ mice given a NK1 antagonist ('pseudo knockout'): Mimics that of Nk1−/− Mice

## CC(C)NCC(O)COc1ccc(CCOCC2CC2)cc1 (stereo not drawn) [betaxolol]
[2]
  locomotor activity: not all drugs that increase locomotor activity in wild-type mice reduce it in NK1^−/− mice

## C[C@H](N)Cc1ccccc1 [d-AMP, d-amphetamine]
NK1−/− and NK1+/+ mice [1]; NK1+/+ mice
  locomotor activity (number of lines crossed): increased
NK1−/− and NK1+/+ mice [1]; NK1−/− mice
  locomotor activity (number of lines crossed): reduced
NK1−/− and NK1+/+ mice [3]; NK1+/+ mice
  extracellular dopamine in the frontal cortex/striatum: increased
NK1−/− and NK1+/+ mice [3]; NK1−/− mice
  extracellular dopamine in the frontal cortex/striatum: no d-AMP induced increase; also recorded: not NK1−/− mice

## CNCCCN1c2ccccc2CCc2ccccc21 [desipramine]
NK1R−/− and NK1R+/+ mice; NK1R+/+ mice
  locomotor activity in an activity chamber: not NK1R+/+ mice
NK1R−/− and NK1R+/+ mice; NK1R−/− mice
  locomotor activity in an activity chamber: reduces locomotor activity
NK1−/− and NK1+/+ mice [4]
  hyperactivity (locomotor activity) in a light/dark exploration box: reduction

## COC(=O)C(c1ccccc1)C1CCCCN1 (stereo not drawn) [methylphenidate]
NK1−/− and NK1+/+ mice [5]; NK1+/+ mice
  locomotor activity (number of lines crossed): increased locomotor activity
NK1−/− and NK1+/+ mice [5]; NK1−/− mice
  locomotor activity (number of lines crossed): reduced activity
